Data as given in the supplement of paper PMC10307832.

How the values were obtained:
Assay in all cases: relative viability (nuclei count vs DMSO), 5 days (fraction); higher = more cells survive
[1] = compound: CC(C)N(CCCNC(=O)Nc1ccc(C(C)(C)C)cc1)C[C@H]1O[C@@H](n2ccc3c(N)ncnc32)[C@H](O)[C@@H]1O + CS(=O)(=O)N1CCN(Cc2cc3nc(-c4cccc5[nH]ncc45)nc(N4CCOCC4)c3s2)CC1 [Pictilisib] (partner 1 µM)
How it was run: (§1)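 One day after seeding in 1536-well plates, lung cancer cell lines were dosed by pin tool. Dosing was either single-drug or a fixed anchor-drug dose plus five library-drug doses (not always all listed) in √10 steps. After 5 days, nuclei were stained in one fix-and-stain step and counted on 4× images, and relative viability is the nuclei count of treated wells over that of vehicle wells, given as the median of duplicate plates.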

[2] = compound: CC(C)=CC[C@@H](O)C1=CC(=O)c2c(O)ccc(O)c2C1=O [Shikonin] + CCNC(=O)c1noc(-c2cc(C(C)C)c(O)cc2O)c1-c1ccc(CN2CCOCC2)cc1 [Luminespib] (partner 0.01 µM)
How it was run: as §1

[3] = compound: CC(C)=CC[C@@H](O)C1=CC(=O)c2c(O)ccc(O)c2C1=O [Shikonin] + CC(=O)Nc1cccc(-n2c(=O)n(C3CC3)c(=O)c3c(Nc4ccc(I)cc4F)n(C)c(=O)c(C)c32)c1 [Trametinib] (partner 0.02 µM)
How it was run: as §1

[4] = compound: CC(C)N(CCCNC(=O)Nc1ccc(C(C)(C)C)cc1)C[C@H]1O[C@@H](n2ccc3c(N)ncnc32)[C@H](O)[C@@H]1O + O=C(c1cc(Cc2n[nH]c(=O)c3ccccc23)ccc1F)N1CCN(C(=O)C2CC2)CC1 [Olaparib] (partner 8 µM)
How it was run: as §1

| Cell Line | relative viability ([1]; first compound 0.08 µM) | relative viability ([1]; first compound 0.253 µM) | relative viability ([1]; first compound 0.8 µM) | relative viability ([1]; first compound 2.53 µM) | relative viability ([1]; first compound 8 µM) | relative viability ([2]; first compound 0.01 µM) | relative viability ([2]; first compound 0.1 µM) | relative viability ([2]; first compound 0.3162 µM) | relative viability ([2]; first compound 1 µM) | relative viability ([3]; first compound 0.01 µM) | relative viability ([3]; first compound 0.1 µM) | relative viability ([3]; first compound 0.3162 µM) | relative viability ([3]; first compound 1 µM) | relative viability ([4]; first compound 0.08 µM) | relative viability ([4]; first compound 0.253 µM) | relative viability ([4]; first compound 0.8 µM) | relative viability ([4]; first compound 2.53 µM) | relative viability ([4]; first compound 8 µM) |
| --- | --- | --- | --- | --- | --- | --- | --- | --- | --- | --- | --- | --- | --- | --- | --- | --- | --- | --- |
| NCI-H1915 | 0.939 | 0.879 | 0.868 | 0.912 | 0.808 | 1 | 0.758 | 0.849 | 0.85 | 0.308 | 0.31 | 0.309 | 0.298 | 0.244 | 0.288 | 0.229 | 0.236 | 0.23 |
| NCI-H1944 | 0.314 | 0.292 | 0.285 | 0.384 | 0.366 | 0.704 | 0.613 | 0.889 | 0.8 | 0.382 | 0.431 | 0.415 | 0.469 | 0.416 | 0.409 | 0.413 | 0.41 | 0.403 |
| NCI-H1975 | 0.289 | 0.268 | 0.197 | 0.271 | 0.289 | 0.178 | 0.27 | 0.248 | 0.167 | 0.275 | 0.367 | 0.33 | 0.321 | 0.745 | 0.82 | 0.68 | 0.649 | 0.538 |
| NCI-H1993 | 0.822 | 0.716 | 0.868 | 0.781 | 0.773 | 1.08 | 0.834 | 0.834 | 0.531 | 0.526 | 0.516 | 0.563 | 0.568 | 1.06 | – | 1.07 | 1.01 | 1.01 |
| NCI-H2009 | 0.817 | 0.663 | 0.826 | 0.976 | 0.854 | 1.1 | 1.16 | 1 | 0.876 | 0.256 | 0.292 | 0.245 | 0.254 | 0.723 | 0.643 | 0.644 | 0.629 | 0.64 |
| NCI-H2023 | 0.265 | 0.215 | 0.219 | 0.333 | 0.217 | 0.969 | 0.851 | 0.982 | 0.59 | 0.546 | 0.534 | 0.64 | 0.56 | 0.491 | 0.458 | 0.458 | 0.446 | 0.43 |
| NCI-H2085 | 0.456 | 0.405 | 0.429 | 0.455 | 0.568 | 0.443 | 0.471 | 0.336 | 0.379 | 0.601 | 0.502 | 0.574 | 0.513 | 0.749 | 0.834 | 0.873 | 0.867 | 0.763 |
| NCI-H2087 | 0.898 | 0.778 | 0.745 | 0.963 | 0.653 | 0.185 | 0.167 | 0.156 | 0.153 | 0.198 | 0.194 | 0.189 | 0.18 | 0.599 | 0.694 | 0.553 | 0.667 | 0.581 |
| NCI-H2126 | 0.499 | 0.476 | 0.415 | 0.529 | 0.48 | 1.01 | 1.05 | 0.966 | 0.891 | 0.549 | 0.553 | 0.607 | 0.571 | 0.873 | 0.932 | 0.901 | 0.883 | 0.778 |
| NCI-H2170 | 0.36 | 0.262 | 0.336 | 0.372 | 0.323 | 0.8 | 0.703 | 0.632 | 0.562 | 0.937 | 0.97 | 0.959 | 0.981 | 0.59 | 0.573 | 0.619 | 0.601 | 0.539 |
| NCI-H2228 | 0.483 | – | 0.462 | 0.478 | 0.28 | 0.153 | 0.177 | 0.146 | 0.163 | 0.342 | 0.441 | 0.536 | 0.494 | 0.879 | 0.712 | 0.427 | 0.601 | 0.615 |
| NCI-H2347 | 0.45 | 0.546 | 0.661 | 0.582 | 0.842 | 0.573 | 0.477 | 0.471 | 0.526 | 0.272 | 0.273 | 0.279 | 0.249 | 0.525 | 0.593 | 0.534 | 0.655 | 0.548 |
| NCI-H2405 | 0.506 | – | 0.358 | 0.46 | 0.429 | 0.698 | 0.745 | 0.665 | 0.644 | 0.622 | 0.725 | 0.653 | 0.573 | 0.854 | 0.906 | 0.755 | 0.961 | 0.842 |
| NCI-H3122 | 0.653 | 0.576 | 0.634 | 0.493 | 0.553 | 0.0973 | 0.0926 | 0.0903 | 0.0968 | 0.183 | 0.292 | 0.211 | 0.266 | 0.684 | 0.632 | 0.536 | 0.663 | 0.512 |
| PC-3 [JPC-3] | 0.757 | 0.677 | 0.658 | 0.656 | 0.727 | 0.727 | 0.677 | 0.665 | 0.622 | 0.664 | 0.688 | 0.669 | 0.616 | 1.12 | 1.15 | – | 1.11 | 1.07 |
| PC-14 | 0.657 | 0.528 | 0.795 | 0.882 | 0.57 | 0.115 | 0.12 | 0.135 | 0.151 | 0.936 | 0.9 | 0.893 | 0.769 | 0.303 | 0.249 | 0.281 | 0.257 | 0.247 |
| RERF-LC-KJ | 0.597 | 0.511 | 0.525 | 0.493 | 0.501 | 1.2 | 1.29 | 1.2 | 1.11 | 0.97 | 0.728 | 0.991 | 0.743 | 0.887 | 1.04 | 0.843 | 1 | 0.963 |
